Measurements taken from US8222404B2, “[1,2,4]Thiadiazin-3-yl acetic acid compound and methods of making the acetic acid compound” (Anadys Pharmaceuticals, Inc., priority 2008, dated 2012).

Tested on: HCV Huh-luc/neo-ET replicon cells
Test: Luciferase-Based HCV Replicon Assay (EC50 (1b))
Format: cell-based
Conditions: Hepatitis C virus, 72 hours exposure, luciferase activity
Outline: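 EC50 (1b) derived from % inhibition of luciferase signal relative to untreated cells, background set by 100 nM BILN-2061 (protease inhibitor). Triplicate dose series added to replicon cells 24 h post-seeding; luminescence measured after 72 h compound exposure.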

CS(=O)(=O)NCc1csc2c1S(=O)(=O)N=C(C1=C(O)[C@@H]3[C@@H]4CC[C@@H](C4)[C@@H]3N(Cc3ccccc3)C1=O)N2 [Example 39, N-[3-((1S,2S,7R,8R)-3-Benzyl-6-hydroxy-4-oxo-3-aza-tricyclo[6.2.1.0^2,7]undec-5-en-5-yl)-1,1-dioxo-1,4-dihydro-1λ^6-thieno[2,3-e][1,2,4]thiadiazin-7-ylmethyl]-methanesulfonamide]
EC50: 5 to 20 nM

CS(=O)(=O)NCc1csc2c1S(=O)(=O)N=C(C1=C(O)[C@@H]3[C@@H]4CC[C@@H](C4)[C@@H]3N(CC3CCCCC3)C1=O)N2 [Example 102, N-[3-((1S,2S,7R,8R)-3-Cyclohexylmethyl-6-hydroxy-4-oxo-3-aza-tricyclo[6.2.1.0^2,7]undec-5-en-5-yl)-1,1-dioxo-1,4-dihydro-1λ^6-thieno[2,3-e][1,2,4]thiadiazin-7-ylmethyl]-methanesulfonamide]
EC50: 20 to 100 nM

COc1cc(CN2C(=O)C(C3=NS(=O)(=O)c4c(CNS(C)(=O)=O)csc4N3)=C(O)[C@@H]3[C@H]4CC[C@H](C4)[C@@H]32)ccc1F [Example 38, N-{3-[(1R,2S,7R,8S)-3-(4-Fluoro-3-methoxy-benzyl)-6-hydroxy-4-oxo-3-aza-tricyclo[6.2.1.0^2,7]undec-5-en-5-yl]-1,1-dioxo-1,4-dihydro-1λ^6-thieno[2,3-e][1,2,4]thiadiazin-7-ylmethyl}-methanesulfonamide]
EC50: 5 to 20 nM

CC1CN(Cc2ccc(F)cc2)C(=O)C(C2=NS(=O)(=O)c3c(CNS(C)(=O)=O)csc3N2)=C1O (racemic) [Example 10, rac-N-{3-[1-(4-Fluoro-benzyl)-4-hydroxy-5-methyl-2-oxo-1,2,5,6-tetrahydro-pyridin-3-yl]-1,1-dioxo-1,4-dihydro-1λ^6-thieno[2,3-e][1,2,4]thiadiazin-7-ylmethyl}-methanesulfonamide]
EC50: 100 to 1000 nM

CS(=O)(=O)NCc1csc2c1S(=O)(=O)N=C(C1=C(O)[C@@H]3[C@H]4CC[C@H](C4)[C@@H]3N(Cc3ccc(F)c(F)c3)C1=O)N2 [Example 88, N-{3-[(1R,2S,7R,8S)-3-(3,4-Difluoro-benzyl)-6-hydroxy-4-oxo-3-aza-tricyclo[6.2.1.0^2,7]undec-5-en-5-yl]-1,1-dioxo-1,4-dihydro-1λ^6-thieno[2,3-e][1,2,4]thiadiazin-7-ylmethyl}-methanesulfonamide]
EC50: ≤ 5 nM

CS(=O)(=O)NCc1csc2c1S(=O)(=O)N=C(C1=C(O)C3C4CCC(O4)C3N(Cc3ccccc3)C1=O)N2 (racemic) [Example 45, (rac-di-exo)-N-[3-(3-Benzyl-6-hydroxy-4-oxo-11-oxa-3-aza-tricyclo[6.2.1.0^2,7]undec-5-en-5-yl)-1,1-dioxo-1,4-dihydro-1λ^6-thieno[2,3-e][1,2,4]thiadiazin-7-ylmethyl]-methanesulfonamide]
EC50: 20 to 100 nM

CS(=O)(=O)NCc1csc2c1S(=O)(=O)N=C(C1=C(O)C3CCCCCC3NC1=O)N2 (racemic) [Example 87, (rac-cis)-N-[3-(4-Hydroxy-2-oxo-2,4a,5,6,7,8,9,9a-octahydro-1H-cyclohepta[b]pyridin-3-yl)-1,1-dioxo-1,4-dihydro-1λ^6-thieno[2,3-e][1,2,4]thiadiazin-7-ylmethyl]-methanesulfonamide]
EC50: > 1000 nM

CS(=O)(=O)NCc1csc2c1S(=O)(=O)N=C(C1=C(O)[C@@H]3[C@@H]4CC[C@@H](C4)[C@@H]3N(Cc3cc(F)c(F)c(F)c3)C1=O)N2 [Example 57, N-{3-[(1S,2S,7R,8R)-6-Hydroxy-4-oxo-3-(3,4,5-trifluoro-benzyl)-3-aza-tricyclo[6.2.1.0^2,7]undec-5-en-5-yl]-1,1-dioxo-1,4-dihydro-1λ^6-thieno[2,3-e][1,2,4]thiadiazin-7-ylmethyl}-methanesulfonamide]
EC50: 5 to 20 nM

CS(=O)(=O)NCc1csc2c1S(=O)(=O)N=C(C1=C(O)C3CCCCC3N(Cc3ccc(F)c(Cl)c3)C1=O)N2 (racemic) [Example 119, (rac-cis)-N-{3-[1-(3-Chloro-4-fluoro-benzyl)-4-hydroxy-2-oxo-1,2,4a,5,6,7,8,8a-octahydro-quinolin-3-yl]-1,1-dioxo-1,4-dihydro-1λ^6-thieno[2,3-e][1,2,4]thiadiazin-7-ylmethyl}-methanesulfonamide]
EC50: 100 to 1000 nM

CS(=O)(=O)NCc1csc2c1S(=O)(=O)N=C(C1=C(O)C3C4C=CC(C4)C3N(Cc3ccccc3)C1=O)N2 (racemic) [Example 46, (rac-di-exo)-N-[3-(3-Benzyl-6-hydroxy-4-oxo-3-aza-tricyclo[6.2.1.0^2,7]undeca-5,9-dien-5-yl)-1,1-dioxo-1,4-dihydro-1λ^6-thieno[2,3-e][1,2,4]thiadiazin-7-ylmethyl]-methanesulfonamide]
EC50: ≤ 5 nM

CC(C)CC1CC(O)=C(C2=NS(=O)(=O)c3c(CNS(C)(=O)=O)csc3N2)C(=O)N1Cc1ccc(F)cc1 (racemic) [Example 7, rac-N-{3-[1-(4-Fluoro-benzyl)-4-hydroxy-6-isobutyl-2-oxo-1,2,5,6-tetrahydro-pyridin-3-yl]-1,1-dioxo-1,4-dihydro-1λ^6-thieno[2,3-e][1,2,4]thiadiazin-7-ylmethyl}-methanesulfonamide]
EC50: 100 to 1000 nM

CC(C)CCN1C(=O)C(C2=NS(=O)(=O)c3c(CNS(C)(=O)=O)csc3N2)=C(O)C2CCCCC21 (racemic) [Example 132, (rac-cis)-N-{3-[4-Hydroxy-1-(3-methyl-butyl)-2-oxo-1,2,4a,5,6,7,8,8a-octahydro-quinolin-3-yl]-1,1-dioxo-1,4-dihydro-1λ^6-thieno[2,3-e][1,2,4]thiadiazin-7-ylmethyl}-methanesulfonamide]
EC50: 20 to 100 nM

CS(=O)(=O)NCc1csc2c1S(=O)(=O)N=C(C1=C(O)[C@@H]3CCC[C@@H]3N(Cc3ccccc3)C1=O)N2 [Example 124, (4aR,7aS)-N-[3-(1-Benzyl-4-hydroxy-2-oxo-2,4a,5,6,7,7a-hexahydro-1H-[1]pyrindin-3-yl)-1,1-dioxo-1,4-dihydro-1λ^6-thieno[2,3-e][1,2,4]thiadiazin-7-ylmethyl]-methanesulfonamide]
EC50: 5 to 20 nM

CS(=O)(=O)NCc1csc2c1S(=O)(=O)N=C(C1=C(O)C3CCCC3N(NC3CCC3)C1=O)N2 (racemic) [Example 27, (rac-cis)-N-[3-(1-cyclobutylamino-4-hydroxy-2-oxo-2,4a,5,6,7,7a-hexahydro-1H-[1]pyrindin-3-yl)-1,1-dioxo-1,4-dihydro-1λ^6-thieno[2,3-e][1,2,4]thiadiazin-7-ylmethyl]-methanesulfonamide]
EC50: > 1000 nM

CS(=O)(=O)NCc1csc2c1S(=O)(=O)N=C(C1=C(O)C3CCCCC3N(CC3CCCCC3)C1=O)N2 (racemic) [Example 104, (rac-cis)-N-[3-(1-Cyclohexylmethyl-4-hydroxy-2-oxo-1,2,4a,5,6,7,8,8a-octahydro-quinolin-3-yl)-1,1-dioxo-1,4-dihydro-1λ^6-thieno[2,3-e][1,2,4]thiadiazin-7-ylmethyl]-methanesulfonamide]
EC50: 100 to 1000 nM

CS(=O)(=O)NCc1csc2c1S(=O)(=O)N=C(C1=C(O)[C@@H]3[C@H]4CC[C@H](C4)[C@@H]3N(Cc3cc(F)c(F)c(F)c3)C1=O)N2 [Example 54, N-{3-[(1R,2S,7R,8S)-6-Hydroxy-4-oxo-3-(3,4,5-trifluoro-benzyl)-3-aza-tricyclo[6.2.1.0^2,7]undec-5-en-5-yl]-1,1-dioxo-1,4-dihydro-1λ^6-thieno[2,3-e][1,2,4]thiadiazin-7-ylmethyl}-methanesulfonamide]
EC50: 5 to 20 nM

CS(=O)(=O)NCc1csc2c1S(=O)(=O)N=C(C1=C(O)CC(C3CCCC3)N(Cc3ccc(F)cc3)C1=O)N2 (racemic) [Example 9, rac-N-{3-[6-Cyclopentyl-1-(4-fluoro-benzyl)-4-hydroxy-2-oxo-1,2,5,6-tetrahydro-pyridin-3-yl]-1,1-dioxo-1,4-dihydro-1λ^6-thieno[2,3-e][1,2,4]thiadiazin-7-ylmethyl}-methanesulfonamide]
EC50: 100 to 1000 nM

CC(C)CCN1C(=O)C(C2=NS(=O)(=O)c3c(CNS(C)(=O)=O)csc3N2)=C(O)C2C3CCC(O3)C21 (racemic) [Example 63, (rac-di-exo)-N-{3-[6-Hydroxy-3-(3-methyl-butyl)-4-oxo-11-oxa-3-aza-tricyclo[6.2.1.0^2,7]undec-5-en-5-yl]-1,1-dioxo-1,4-dihydro-1λ^6-thieno[2,3-e][1,2,4]thiadiazin-7-ylmethyl}-methanesulfonamide]
EC50: 20 to 100 nM

COc1ccc(CN2C(=O)C(C3=NS(=O)(=O)c4c(CNS(C)(=O)=O)csc4N3)=C(O)C3CCCCC32)c(OC)c1 (racemic) [Example 78, (rac-cis)-N-{3-[1-(2,4-Dimethoxy-benzyl)-4-hydroxy-2-oxo-1,2,4a,5,6,7,8,8a-octahydro-quinolin-3-yl]-1,1-dioxo-1,4-dihydro-1λ^6-thieno[2,3-e][1,2,4]thiadiazin-7-ylmethyl}-methanesulfonamide]
EC50: > 1000 nM

CS(=O)(=O)NCc1csc2c1S(=O)(=O)N=C(C1=C(O)[C@@H]3[C@@H]4CC[C@@H](C4)[C@@H]3N(Cc3ccc(F)cc3F)C1=O)N2 [Example 40, N-{3-[(1S,2S,7R,8R)-3-(2,4-Difluoro-benzyl)-6-hydroxy-4-oxo-3-aza-tricyclo[6.2.1.0^2,7]undec-5-en-5-yl]-1,1-dioxo-1,4-dihydro-1λ^6-thieno[2,3-e][1,2,4]thiadiazin-7-ylmethyl}-methanesulfonamide]
EC50: 20 to 100 nM

CC(C)C1CN(Cc2ccc(F)cc2)C(=O)C(C2=NS(=O)(=O)c3c(CNS(C)(=O)=O)csc3N2)=C1O (racemic) [Example 13, rac-N-{3-[1-(4-Fluoro-benzyl)-4-hydroxy-5-isopropyl-2-oxo-1,2,5,6-tetrahydro-pyridin-3-yl]-1,1-dioxo-1,4-dihydro-1λ^6-thieno[2,3-e][1,2,4]thiadiazin-7-ylmethyl}-methanesulfonamide]
EC50: 100 to 1000 nM

COc1ccc(CN2C(=O)C(C3=NS(=O)(=O)c4c(CNS(C)(=O)=O)csc4N3)=C(O)[C@@H]3C4CCC(CC4)[C@@H]32)c(OC)c1 [Example 74, N-{3-[(2S,7R)-3-(2,4-Dimethoxy-benzyl)-6-hydroxy-4-oxo-3-aza-tricyclo[6.2.2.0^2,7]dodec-5-en-5-yl]-1,1-dioxo-1,4-dihydro-1λ^6-thieno[2,3-e][1,2,4]thiadiazin-7-ylmethyl}-methanesulfonamide]
EC50: > 1000 nM
